In patent US7579488B2 (Eli Lilly and Company, priority 2003, dated 2009):
Where “and” joins values, the source holds several entries; their conditions need not be identical. Equal values may be shown once. Read-outs that look alike come from different tables or passages of the source.

Experiments:
female DBF mice = test: Mouse hypercalcemia assay; settings: oral gavage for 6 days
Excerpt: The Mouse Hypercalcemia Assay
The Mouse Hypercalcemia Assay is a six day hypercalcemia test for toxicity and selectivity.
(4) Materials and Method for the Mouse Hypercalcemia Assay:
Weanling, virus-antibody-free, five to six weeks old female DBF mice (Harlan, Indianapolis, Ind.) are used for all the studies. Animals are allowed to acclimate to local vivarium conditions for 2 days. […] The animals then are divided into groups with 4-5 mice per group. Different doses of test compounds prepared in 10% Ethanol and 90% sesame oil are administered to mice orally via gavage for 6 days. 1α-25(OH)2D3 0.5 μg/kg/d was also given to one group of mice as the positive control. […] Raw data of group differences is assessed by analysis of variance (ANOVA) using Fisher's protected least significant difference (PLSD) where the significance level was P<0.05.

rat osteocalcin promoter = test: OCN (osteocalcin) promoter assay; assay type: cell-based; settings: RG-15 (ROS 17/2.8) cells
Protocol: 3. The OCN (Osteocalcin) Promoter Assay
The OCN Promoter Assay is an indicator and marker for osteoporosis. […] Preferred assay results are less than 50 nM.
(3) Materials and Method for The OCN Promoter Assay:
The activation of osteocalcin by VDR ligands was evaluated in a rat osteoblast-like cell line RG-15 (ROS 17/2.8) stably expressing rat osteocalcin promoter fused with luciferase reporter gene. […] Confluent RG-15 cells maintained in DMEM/F-12 medium (3:1) containing 5% FBS, 300 μg/ml G418 and at 37° C. under 5% CO2/95% air atmosphere were trypsinized (0.25% trypsin) and plated into white opaque 96-well cell culture plates (25000 cells/well). After 24 hr, cells (in DMEM/F-12 medium+2% FBS) were treated with various concentrations of compounds, dissolved in DMSO. The final DMSO concentration remained at 0.01% (v/v). After 48 hr treatment, the medium was removed, cells were lysed with 50 μl of lysis buffer (From Luciferase reporter assay system, Roche Diagnostics, Indianapolis, Ind.) and assayed for luciferase activity using the Luciferase Reporter Gene Assay kit from Boehringer Mannheim as per manufacturer's specifications.

KERtr cells = test: Keratinocyte proliferation assay; assay type: cell-based; settings: Homo sapiens, read-out: Kera. Prolif. IC50
Protocol: 5. The Keratinocyte Proliferation Assay
This Assay is indicative for the treatment of psoriasis.
(5) The Keratinocyte Proliferation Assay:
KERtr cells (Human skin keratinocyte transformed with a retrovirus vector, obtained from ATCC) were plated in 96-well flat-bottomed plates (3000 cells/well) in 100 μl keratinocyte serum free medium supplemented with bovine pituitary extract in the absence of EGF (Life Technologies, Rockville, Md.) and incubated at 37° C. for two days. The cells were treated with various concentrations of VDR ligands (ten-fold serial dilution from 10,000 nM to 0.1 nM in triplicate), dissolved in 100 μl keratinocyte serum free medium supplemented with bovine pituitary extract in the absence of EGF and incubated at 37° C. for 72 hr. […] Potency values (IC50) values were determined as the concentration (nM) of compound that elicited a half-maximal response.

VDR = target: T1, VDR (Homo sapiens, UniProt P11473); test: VDR CTF (Caco-2 cell co-transfection) assay; assay type: cell-based; settings: Caco-2 cells, pGal4-VDR-LBD co-transfection, luciferase; several values separated by /
T1 construct: the receptor expression vector pGal4-VDR-LBD (10 ng); expressed in transfected cells; host or cells: Caco-2 cells
T1 sequence (P11473 127-423 limits assumed): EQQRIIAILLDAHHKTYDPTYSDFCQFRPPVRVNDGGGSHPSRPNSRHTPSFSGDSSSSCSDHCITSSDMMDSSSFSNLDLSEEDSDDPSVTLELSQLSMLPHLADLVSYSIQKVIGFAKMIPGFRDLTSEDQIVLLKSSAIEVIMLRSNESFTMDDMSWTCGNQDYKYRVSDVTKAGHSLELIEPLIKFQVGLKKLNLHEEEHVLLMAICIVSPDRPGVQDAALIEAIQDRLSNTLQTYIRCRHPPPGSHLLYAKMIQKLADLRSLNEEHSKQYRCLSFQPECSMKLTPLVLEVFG
Protocol: 2. The Caco-2 Cell Co-Transfection Assay:
The Caco-2 cell assay is an indicator for the undesirable condition of hypercalcemia. This co-transfection assay is a surrogate assay for in vivo calcemic activity of VDR ligands. […] Preferred assay results are greater than 1000 nM.
(2) Materials and Method for the Caco-2 Cell Assay:
Caco-2 cells, grown in phenol red free, DMEM (Invitrogen, Carlsbad, Calif.) containing 10% charcoal-stripped FCS (Hyclone, Logan, Utah), were transfected with Fugene 6 reagent (Roche Diagnostics, Indianapolis, Ind.). Cells (5000/well) were plated 18 h before transfection in a 96 well plate. The Cells were transfected with Gal4-responsive reporter pFRLuc (150 ng, Stratagene, La Jolla Calif.) and the receptor expression vector pGal4-VDR-LBD (10 ng), along with Fugene 6 reagent (0.2 μl/well). The DNA-Fugene complex was formed by incubating the mixture for 30 min at room temperature. The cells were transfected in triplicate for 5 h, and treated with various concentrations of VDR ligands (form 0.01 nM to 10,000 nM concentration range) 18 h post-transfection. The luciferase activity was quantified using Steady-Glo reagent kit (Promega, Madison, Wis.) as per manufacturer's specifications.

RXR-VDR heterodimer = target: T2, RXR-VDR heterodimer (Homo sapiens, UniProt P11473); test: RXR-VDR heterodimerization assay (SaOS-2 cells); assay type: cell-based; settings: Gal4-RXR-DEF/VP16-VDR-LBD luciferase reporter, several values in a cell separated by /
T2 construct: Add the Gal4-RXR-DEF and VP16-VDR-LBD; expressed in transfected cells; host or cells: SaOS-2 cells
T2 sequence (P11473 127-423 limits assumed): T1 sequence (P11473 127-423 limits assumed)
T2 sequence (P19793 201-462 partner limits assumed): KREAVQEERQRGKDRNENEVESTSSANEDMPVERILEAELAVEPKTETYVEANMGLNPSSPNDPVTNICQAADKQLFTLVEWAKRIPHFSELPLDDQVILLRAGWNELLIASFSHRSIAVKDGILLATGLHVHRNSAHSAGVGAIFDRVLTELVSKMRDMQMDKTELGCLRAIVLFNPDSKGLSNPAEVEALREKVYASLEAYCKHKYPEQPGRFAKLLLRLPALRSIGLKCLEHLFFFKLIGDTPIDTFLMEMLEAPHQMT
Protocol: 1. The RXR-VDR Heterodimer Assay:
This assay provides the VDR activity of a test compound.
(1) Materials and Method for RXR-VDR Heterodimerization Assay:
Luciferase Assay Reagent: • Use Steady-Glo Luciferase Reagent from Promega (Cat #E2550) Consists of: a. E2533 Assay Substrate, lyopholized product and b. E2543 Assay Buffer. • Thaw at room temperature • Store Cell Harvesting Aspirate media from culture flask, rinse cells with HBSS and aspirate. Add trypsin and incubate. When cells appear detached, resuspend cells in growth media. Transfer into a new flask with fresh growth media for passaging the cells. Plate well plates and two extra plates A. Cell Count Mix the cell suspension using pipette Use Hematocytometer to count the cells Load cell suspension onto the hemocytometer chamber Count cells. […] In sterile flask add cell suspension to plating media. Mix. Add cells/well. Place the cells in the incubator. Cells should be about 75% confluent prior to transfection. DAY 2: Transfection Step 1: DNA and Media Add plain DMEM media to tubes for mixing the DNA Add the Reporter gene pFR-LUC Add the Gal4-RXR-DEF and VP16-VDR-LBD Step 2: FuGENE and Media Prepare plain DMEM media in a ubes for mixing FuGENE Add FuGENE 6 Transfection Reagent Incubate Step 3: FuGENE, DNA and Media Complex Add FuGENE Media complex from step 2 to DNA Media complex from step 1 Incubate Step 4: FuGENE, DNA and Media Complex to-well plate Add FuGENE-DNA-Media complex from step 3 to each plate Incubate. […] Day 4: Luciferase Assay Read the plates after drug treatment Remove part of media from all the wells and leave remainder Add Steady-Glo Luciferase Reagent mixture/wells Incubate Count each well using a Luminescence counter, Top Count NXT by Packard
Set a delay between plates to reduce the background.

[1] = Rattus norvegicus, comparison compounds
[2] = serum ionized calcium 6 hours after last dosing
[3] = Rattus norvegicus, 48 h, 48 hr treatment, luciferase, several values separated by /
[4] = 72 h, BrdU incorporation, several values separated by /
[5] = 48 hr treatment, luciferase, several values separated by /

SMILES: CCC(CC)(c1ccc(OCC(=O)C(C)(C)C)c(C)c1)c1ccc(OCC(=O)C(C)(C)C)c(C)c1 [DD, reference compound]
- Mouse Hypercal (female DBF mice; comparison compounds): 1000 µg/kg/day
- EC50 (rat osteocalcin promoter; [1]): 31.1 nM
- IC50 (KERtr cells; comparison compounds): 1060 nM

SMILES: CCC(CC)(c1ccc(OCC(=O)C(C)(C)C)c(C)c1)c1ccc(OC[C@H](O)C(C)(C)C)c(C)c1 [EE, reference compound]
- Mouse Hypercal (female DBF mice; comparison compounds): 1000 µg/kg/day
- EC50 (rat osteocalcin promoter; [1]): 341 nM

SMILES: CCC(CC)(c1ccc(OCC(=O)C(C)(C)C)c(C)c1)c1cc2ccc(C(=O)O)cc2o1 [Ex 18, 2-{1-[4-(3,3-dimethyl-2-oxo-butoxy)-3-methyl-phenyl]-1-ethyl-propyl}-benzofuran-6-carboxylic acid]
- Mouse Hypercal (female DBF mice; [2]): >300 µg/kg/day
- EC50 (VDR): 472 nM
- EC50 (rat osteocalcin promoter; [3]): 2 nM
- IC50 (KERtr cells; [4]): 25 nM

SMILES: CCC(CC)(c1ccc(OCC(=O)C(C)(C)C)c(C)c1)c1cc2ccc(C(=O)NCC(=O)O)cc2o1 [Ex 20, [(2-{1-[4-(3,3-Dimethyl-2-oxo-butoxy)-3-methyl-phenyl]-1-ethyl-propyl}-benzofuran-6-carbonyl)-amino]-acetic acid]
- EC50 (RXR-VDR heterodimer): 264 nM and 68 nM
- EC50 (VDR): 773 nM
- IC50 (KERtr cells; [4]): 1000 nM

SMILES: CCC(CC)(c1ccc(OCC(=O)C(C)(C)C)c(C)c1)c1cc(C)c2oc(C(=O)NCC(=O)O)cc2c1 [Ex 28, [(5-{1-[4-(3,3-dimethyl-2-oxo-butoxy)-3-methyl-phenyl]-1-ethyl-propyl}-7-methyl-benzofuran-2-carbonyl)-amino]-acetic acid]
- Mouse Hypercal (female DBF mice; [2]): >1000 µg/kg/day
- EC50 (rat osteocalcin promoter; [3]): 4 nM
- IC50 (KERtr cells; [4]): 11 nM

SMILES: CCC(CC)(c1ccc(OCC(O)C(C)(C)C)c(C)c1)c1ccc2oc(C(=O)NCC(=O)O)cc2c1 (centres unmarked) [Ex 33, [(5-{1-ethyl-1-[4-(2-hydroxy-3,3-dimethyl-butoxy)-3-methyl-phenyl]-propyl}-benzofuran-2-carbonyl)-amino]-acetic acid]
- EC50 (RXR-VDR heterodimer): 9 nM
- EC50 (VDR): 178 nM
- EC50 (rat osteocalcin promoter; [3]): 0.4 nM

SMILES: CCC(CC)(c1ccc(OCC(=O)C(C)(C)C)c(C)c1)c1ccc2oc(C(=O)O)c(C)c2c1 [Ex 34, 5-{1-[4-(3,3-Dimethyl-2-oxo-butoxy)-3-methyl-phenyl]-1-ethyl-propyl}-3-methyl-benzofuran-2-carboxylic acid]
- Mouse Hypercal (female DBF mice; [2]): >3000 µg/kg/day
- EC50 (VDR): 896 nM
- EC50 (rat osteocalcin promoter; [5]): 21 nM
- EC50 (rat osteocalcin promoter; [3]): 13 nM

SMILES: CCC(CC)(c1ccc(OCC(O)C(C)(C)C)c(C)c1)c1ccc2oc(C(=O)O)c(C)c2c1 (centres unmarked) [Ex 35, 5-{1-Ethyl-1-[4-(2-hydroxy-3,3-dimethyl-butoxy)-3-methyl-phenyl]-propyl}-3-methyl-benzofuran-2-carboxylic acid]
- EC50 (VDR): 753 nM
- EC50 (rat osteocalcin promoter; [5]): 21 nM
- EC50 (rat osteocalcin promoter; [3]): 13 nM
- IC50 (KERtr cells; [4]): 700 nM

SMILES: CCC(CC)(c1ccc(OCC(O)C(C)(C)C)c(C)c1)c1ccc2oc(C(=O)N(C)C)c(C)c2c1 (centres unmarked) [Ex 37, 5-{1-ethyl-1-[4-(2-hydroxy-3,3-dimethyl-butoxy)-3-methyl-phenyl]-propyl}-3-methyl-benzofuran-2-carboxylic acid dimethylamide]
- EC50 (RXR-VDR heterodimer): 777 nM and 133 nM
- EC50 (VDR): 865 nM
- IC50 (KERtr cells; [4]): > 1000 nM

SMILES: CCC(CC)(c1ccc(OCC(O)C(C)(C)C)c(C)c1)c1ccc2oc(C(=O)NCC(=O)O)c(C)c2c1 (centres unmarked) [Ex 39, [(5-{1-ethyl-1-[4-(2-hydroxy-3,3-dimethyl-butoxy)-3-methyl-phenyl]-propyl}-3-methyl-benzofuran-2-carbonyl)-amino]-acetic acid]
- EC50 (RXR-VDR heterodimer): 138 nM
- EC50 (VDR): 419 nM
- EC50 (rat osteocalcin promoter; [3]): 0.4 nM
- IC50 (KERtr cells; [4]): 19 nM

SMILES: CCC(CC)(c1ccc(OCC(O)C(C)(C)C)c(C)c1)c1cc2cc(C(=O)O)ccc2o1 (centres unmarked) [Ex. 4, 2-{1-Ethyl-1-[4-(2-hydroxy-3,3-dimethyl-butoxy)-3-methyl-phenyl]-propyl}-benzofuran-5-carboxylic acid]
- EC50 (VDR): 312 nM and 368 nM

SMILES: CCC(CC)(c1ccc(OCC(=O)C(C)(C)C)c(C)c1)c1cc2cc(C(=O)N(C)C)ccc2o1 [Ex. 5, 2-{1-[4-(3,3-Dimethyl-2-oxo-butoxy)-3-methyl-phenyl]-1-ethyl-propyl}-benzofuran-5-carboxylic acid dimethylamide]
- EC50 (VDR): 1200 nM
- EC50 (rat osteocalcin promoter; [5]): 79 nM
- EC50 (rat osteocalcin promoter; [3]): 106 nM

SMILES: CCC(CC)(c1ccc(OCC(O)C(C)(C)C)c(C)c1)c1cc2cc(C(=O)NCC(=O)O)ccc2o1 (centres unmarked) [Ex. 8, [(2-{1-Ethyl-1-[4-(2-hydroxy-3,3-dimethyl-butoxy)-3-methyl-phenyl]-propyl}-benzofuran-5-carbonyl)-amino]-acetic acid]
- EC50 (RXR-VDR heterodimer): 6 nM and 2 nM
- EC50 (VDR): 120 nM
- EC50 (rat osteocalcin promoter; [3]): 0.6 nM
- IC50 (KERtr cells; [4]): 0.3 nM

SMILES: CCC(CC)(c1ccc(OCC(O)C(C)(C)C)c(C)c1)c1cc2cc(C(=O)Nc3nn[nH]n3)ccc2o1 (centres unmarked) [Ex. 13, 2-{1-Ethyl-1-[4-(2-hydroxy-3,3-dimethyl-butoxy)-3-methyl-phenyl]-propyl}-benzofuran-5-carboxylic acid (2H-tetrazol-5-yl)-amide]
- EC50 (VDR): 602 nM
- EC50 (rat osteocalcin promoter; [3]): 3 nM
- IC50 (KERtr cells; [4]): > 1000 nM
